# From patent US9789115B2 (priority 2010, dated 2017)
# Assays:
# naïve rats = settings: rat, in vivo
# [1] = test system: operated rats (plantar incision); settings: rat, in vivo
# [2] = test system: opioid-treated operated rats; assay: Experimental protocol 2: OIH precipitated by naloxone, withdrawal responses with von Frey filaments; assay type: in vivo, rat; settings: for naloxone-precipitated hyperalgesia: naloxone on day 21
# sigma 2 (σ-2) site = sigma 2 (σ-2) site (Homo sapiens, UniProt Q5BJF2); settings: cited from earlier work
# Chain of sigma 2 (σ-2) site (Q5BJF2 whole entry): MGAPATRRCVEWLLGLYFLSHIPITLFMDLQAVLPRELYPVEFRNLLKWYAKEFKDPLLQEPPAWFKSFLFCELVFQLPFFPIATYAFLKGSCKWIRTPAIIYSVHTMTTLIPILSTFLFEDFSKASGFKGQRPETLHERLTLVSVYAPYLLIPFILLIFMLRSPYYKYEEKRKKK
compound,measurement,setting,value
CN1CCN(CCc2ccc(Cl)c(Cl)c2)CC1 [BD-1063],enhancement of allodynia induced by morphine administration,naïve rats,reduces the enhancement of allodynia
same,morphine-induced hyperalgesia,naïve rats,inhibited
"Cc1cc(OCCN2CCOCC2)nn1-c1ccc2ccccc2c1 [compound n° 63, 4-{2-[5-Methyl-1-(naphthalen-2-yl)-1H-pyrazol-3-yloxy]ethyl}morpholine]",allodynia secondary to surgery and OIH when Morphine was used,[1],inhibits allodynia secondary to surgery and OIH
same,decrease of the mechanical sensitization threshold induced by the surgery,[1],inhibit dose-dependently
same,development of OIH,[1],inhibits dose-dependently
same,enhancement of allodynia induced by perioperative morphine,[1],strongly reduced
same,naloxone-precipitated hyperalgesia,[2]; 80 mg/kg co-administered with last dose of opioid,unable to precipitate hyperalgesia
same,naloxone-precipitated hyperalgesia,[2]; 20 and 40 mg/kg co-administered with last dose of opioid,attenuation
CN1CC[C@]23c4c5ccc(O)c4O[C@H]2[C@@H](O)C=C[C@H]3[C@H]1C5 [morphine],analgesic effect of the opioid,[1]; ip,analgesic effect
C=CCN1CC[C@]23c4c5ccc(O)c4O[C@H]2C(=O)CC[C@@]3(O)[C@H]1C5 [naloxone],nociceptive threshold after naloxone injection,[2]; naloxone 2 mg/kg on day 21 in opioid-treated rats,significant decrease in the nociceptive threshold below the basal value
same,nociceptive threshold after naloxone injection,[2]; naloxone 2 mg/kg on day 21 in vehicle saline-treated rats,no significant effect
SKF 10047,affinity for the sigma 2 site,sigma 2 (σ-2) site,micromolar affinity
